Data reported in patent US20240216410A1, “METHODS AND COMPOSITIONS FOR TREATING CANCER THERAPY-INDUCED NEUTROPENIC FEVER AND/OR GVHD” (BOARD OF REGENTS, THE UNIVERSITY OF TEXAS SYSTEM, priority 2021, published 2024).
“Also recorded” adds a separate entry of the source.

Assays:
[1] = Murine GVHD model: colonic luminal carbohydrates by acid hydrolysis and IC-MS; type: in vivo; conditions: day 18; mice with GVHD
Text: BT is known to be a versatile utilizer of a variety of carbohydrate sources derived from the diet, including xylose via the xylose isomerase pathway, as well as host glycans. […] Host mucin glycans are particularly low on the metabolic hierarchy and are typically targeted only after other dietary polysaccharides have been depleted (43). […] Thus, in some embodiments, levels of soluble carbohydrates in the colonic lumen may be perturbed by meropenem treatment, given that it is shown herein that meropenem depletes the abundance of commensal Clostridia, which function to metabolize dietary fibers and starches (45). Using acid hydrolysis followed by ion chromatography-mass spectrometry (IC-MS), levels of monosaccharide subunits comprising soluble luminal polysaccharides were characterized in the colon of mice.
Carbohydrates analysis by IC-MS. To determine the relative abundance of carbohydrates in mouse feces samples, extracts were prepared and analyzed by ultra-HRMS. Fecal pellets were homogenized with a […]® Tissue Homogenizer. Metabolites were extracted using 1 mL ice-cold 80/20 (v/v) methanol/water. Extracts were centrifuged at 17,000 g for 5 min at 4° C., and supernatants were transferred to clean tubes, followed by evaporation to dryness under nitrogen. Dried extracts were reconstituted in deionized water, and 5 μL was injected for analysis by IC-MS. […]

[2] = tested on: Enterococcus faecalis (MDA-JAX EF001); test: MIC of meropenem by MIC test strips; type: cell-based; conditions: mouse-derived
Protocol: (§1) The minimum inhibitory concentration (MIC) of meropenem against murine BT was quantified using MIC test strips (Table 4).
(§2) Culturing of bacteria. Mouse-derived BT (MDA-JAX BT001), Enterococcus faecalis (MDA-JAX EF001) and Clostridium disporicum (MDA-JAX CD001), Clostridium saudiense (MDA-JAX CS001), and Lachnospiraceae unclassified (MDA-JAX LS001) were isolated and cultured from mouse stool samples suspended in 1 ml of chilled 20% anaerobic glycerol in a Whitley anaerobic chamber (10% H2, 5% CO2 and 85% N2). Human-derived BT (ATCC 29148) was purchased from ATCC. Bacterial number was quantified using a Nexcelom Cellometer cell counter with SYTO™ BC dye and propidium iodide. For measuring MICs against meropenem, bacteria were cultured on BYE plates including 5% sterilized rumen fluid (Fisher Scientific) with MIC test strips (LIOFILCHEM™ MTS™ Meropenem [MRP] 0.016-256 μg/mL, THERMO FISHER […]™)). Bacterial growth experiments were in liquid media were performed in a novel bacterial media, BYEM10, composed of a hybrid of BHI and M10 supplemented with yeast extract (Table 5).

[3] = tested on: Clostridium disporicum (MDA-JAX CD001); test: MIC of meropenem by MIC test strips; type: cell-based; conditions: mouse-derived
Protocol: as §1, §2

[4] = tested on: Lachnospiraceae unclassified (MDA-JAX LS001); test: MIC of meropenem by MIC test strips; type: cell-based; conditions: mouse-derived
Protocol: as §1, §2

[5] = tested on: Bacteroides thetaiotaomicron (ATCC 29148); test: MIC of meropenem by MIC test strips; type: cell-based; conditions: ATCC29148, human-derived BT
Protocol: as §1, §2

[6] = tested on: Clostridium saudiense (MDA-JAX CS001); test: MIC of meropenem by MIC test strips; type: cell-based; conditions: mouse-derived
Protocol: as §1, §2

[7] = tested on: Bacteroides thetaiotaomicron (MDA-JAX BT001); test: MIC of meropenem by MIC test strips; type: cell-based; conditions: mouse-derived BT
Protocol: as §1, §2

[8] = Murine GVHD model: fecal SCFAs by IC-MS; type: in vivo; conditions: day 18; meropenem-treated allo-HSCT mice
Text: In some cases, meropenem-induced intestinal dysbiosis contributes to aggravated GVHD via loss of beneficial commensal bacteria. In some embodiments, meropenem-treated allogeneic mice show a loss of Clostridia abundance and a reduction in SCFA levels, including butyrate. On day 7, or 4 days following the start of meropenem treatment, Clostridia were depleted in meropenem-treated mice and remained so at 6 days after stopping 5 meropenem (FIG. 20A).
Short Chain Fatty Acids profiling by ion chromatography-mass spectrometry (IC-MS). To determine the relative abundance of short chain fatty acids in mouse feces samples, extracts were prepared and analyzed by ultra-high resolution mass spectrometry (HRMS). Fecal pellets were homogenized with a […]® Tissue Homogenizer. Metabolites were extracted using 1 mL ice-cold 0.1% Ammonium hydroxide in 80/20 (v/v) methanol/water. Extracts were centrifuged at 17,000 g for 5 min at 4° C., and supernatants were transferred to clean tubes, followed by evaporation to dryness under nitrogen. Dried extracts were reconstituted in deionized water, and 5 μL was injected for analysis by IC-MS. IC mobile phase A (MPA; weak) was water, and mobile phase B (MPB; strong) was water containing 100 mM KOH. A THERMO […]™ DIONEX™ ICS-5000+ system included a THERMO FISHER […]™ IONPAC™ AS11 column ([…], 250×2 mm) with column compartment kept at 30° C. […]

C[C@@H](O)[C@H]1C(=O)N2C(C(=O)O)=C(S[C@@H]3CN[C@H](C(=O)N(C)C)C3)[C@H](C)[C@H]12 [meropenem]
concentrations of soluble luminal polysaccharide monosaccharide subunits [1]: significantly lower concentrations of arabinose- and xylose-derived polysaccharides | MIC [2]: 12 µg/mL | MIC [3]: 0.094 µg/mL | MIC [4]: 0.38 µg/mL | MIC [5]: 6 µg/mL | MIC [6]: 0.38 µg/mL | MIC [7]: 4 µg/mL | fecal levels of SCFAs [8]: significantly decreased; also recorded: reduced fecal levels of SCFAs, with particularly dramatic reductions in butyrate and valerate
